The target in one assay is T1, h-TGR5 (Homo sapiens, UniProt Q8TDU6).
T1 sequence (Q8TDU6 1-330): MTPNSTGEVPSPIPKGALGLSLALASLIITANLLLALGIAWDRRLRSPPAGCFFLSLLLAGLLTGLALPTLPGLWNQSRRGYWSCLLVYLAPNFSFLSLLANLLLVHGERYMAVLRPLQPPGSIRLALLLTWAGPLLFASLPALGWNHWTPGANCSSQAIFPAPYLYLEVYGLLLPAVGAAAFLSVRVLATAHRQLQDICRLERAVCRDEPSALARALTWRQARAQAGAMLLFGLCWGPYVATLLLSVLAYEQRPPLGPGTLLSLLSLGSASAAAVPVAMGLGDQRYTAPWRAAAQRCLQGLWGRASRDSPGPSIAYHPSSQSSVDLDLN
The experiment in a line: TGR5 cAMP Assay using Cisbio cAMP Dynamic 2 htrf assay kit. The class given is cell-based. The settings on record: hTGR5CRE-luc HEK 293 cells.

For another assay, the target named is T2, human TGR5 (h-TGR5) (Homo sapiens, UniProt Q8TDU6).
T2 sequence (Q8TDU6 1-330): T1 sequence (Q8TDU6 1-330)
The experiment in a line: TGR5/CRE-Luciferase Assay. Format: cell-based. The settings on record: HEK 293 hTGR5/CRE-Luc cells, 6 hours incubation, read-out: CRE-Luc Agonist (EC50). A digest of the protocol: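 HEK 293 CRE-Luciferase cells stably expressing the receptor, plated in DMEM 18-20 h before assay, then exposed to serially diluted compounds (DMEM with 5% DMSO) for 6 h. Luciferase read-out after lysis; EC50 from dose-response.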

The record followed here is US8846739B2, “TGR5 agonists” (Exelixis Patent Company LLC, priority 2009, dated 2014).

`COc1cc(C(C)(C)c2cnc(SCc3c(F)cc(CCC[N+]45CCN(CC4)CC5)cc3F)n2-c2ccc(F)cc2)ccc1Cl` [Compound 19, 1-(3-(4-((5-(2-(4-chloro-3-methoxyphenyl)propan-2-yl)-1-(4-fluorophenyl)-1H-imidazol-2-ylthio)methyl)-3,5-difluorophenyl)propyl)-4-aza-1-azoniabicyclo[2.2.2.2]octane 2,2,2-trifluoroacetate]: the 50% effective concentration (EC50) at h-TGR5 and at human TGR5 (h-TGR5) was under 100 nM throughout.

`COc1cc(C(C)(C)c2cnc(SCc3c(F)cc(CCC[N+](C)(C)C)cc3F)n2-c2ccc(F)cc2)ccc1Cl` [Compound 19a, 3-(4-((5-(2-(4-chloro-3-methoxyphenyl)propan-2-yl)-1-(4-fluorophenyl)-1H-imidazol-2-ylthio)methyl)-3,5-difluorophenyl)-N,N,N-trimethylpropan-1-aminium 2,2,2-trifluoroacetate]: the 50% effective concentration (EC50) on h-TGR5 and on human TGR5 (h-TGR5) was under 100 nM throughout.

As for `COc1cc(-n2c(C(C)(C)c3ccc(F)c(Cl)c3)cnc2SCc2c(F)cc(CCC[N+](C)(C)C)cc2F)ccc1F` [Compound 19b, 3-(4-((5-(2-(3-chloro-4-fluorophenyl)propan-2-yl)-1-(4-fluoro-3-methoxyphenyl)-1H-imidazol-2-ylthio)methyl)-3,5-difluorophenyl)-N,N,N-trimethylpropan-1-aminium 2,2,2-trifluoroacetate], the EC50 on h-TGR5 and at human TGR5 (h-TGR5) was under 100 nM each time.

Consider `COc1ccc(C(C)(C)c2cnc(SCc3c(F)cc(CCC[N+](C)(C)C)cc3F)n2-c2ccc(F)cc2)cc1Cl` [Compound 19c, 3-(4-((5-(2-(3-chloro-4-methoxyphenyl)propan-2-yl)-1-(4-fluorophenyl)-1H-imidazol-2-ylthio)methyl)-3,5-difluorophenyl)-N,N,N-trimethylpropan-1-aminium 2,2,2-trifluoroacetate], for which the EC50 at h-TGR5 and at human TGR5 (h-TGR5) was under 100 nM throughout.

For the compound `COc1cc(C(C)(C)c2cnc(SCc3c(F)cc(CCC[N+](C)(C)C)cc3Cl)n2-c2ccc(F)cc2)ccc1Cl` [Compound 19d, 3-(3-chloro-4-((5-(2-(4-chloro-3-methoxyphenyl)propan-2-yl)-1-(4-fluorophenyl)-1H-imidazol-2-ylthio)methyl)-5-fluorophenyl)-N,N,N-trimethylpropan-1-aminium 2,2,2-trifluoroacetate], the 50% effective concentration (EC50) on h-TGR5 and at human TGR5 (h-TGR5) was under 100 nM each time.

For the compound `COc1cc(C(C)(C)c2cnc(SCc3c(F)cc(CCCC[N+](C)(C)C)cc3F)n2-c2ccc(F)cc2)ccc1Cl` [Compound 19e, 4-(4-((5-(2-(4-chloro-3-methoxyphenyl)propan-2-yl)-1-(4-fluorophenyl)-1H-imidazol-2-ylthio)methyl)-3,5-difluorophenyl)-N,N,N-trimethylbutan-1-aminium 2,2,2-trifluoroacetate], the half-maximal effective concentration (EC50) at h-TGR5 and on human TGR5 (h-TGR5) was under 100 nM in each case.

As for `COc1cc(-n2c(C(C)(C)c3ccc(S(N)(=O)=O)c(Cl)c3)cnc2SCc2c(F)cc(CCC[N+](C)(C)C)cc2F)ccc1F` [Compound 19f, 3-(4-((5-(2-(3-chloro-4-sulfamoylphenyl)propan-2-yl)-1-(4-fluoro-3-methoxyphenyl)-1H-imidazol-2-ylthio)methyl)-3,5-difluorophenyl)-N,N,N-trimethylpropan-1-aminium 2,2,2-trifluoroacetate], the half-maximal effective concentration (EC50) on h-TGR5 and on human TGR5 (h-TGR5) was under 100 nM each time.

Take `COc1cc(C(C)(C)c2cnc(SCc3c(F)cc(OCC[N+](C)(C)C)cc3F)n2-c2ccc(F)cc2)ccc1Cl` [Compound 20, 2-(4-((5-(2-(4-Chloro-3-methoxyphenyl)propan-2-yl)-1-(4-fluorophenyl)-1H-imidazol-2-ylthio)methyl)-3,5-difluorophenoxy)-N,N,N-trimethylethanaminium 2,2,2-trifluoroacetate]: the 50% effective concentration (EC50) at h-TGR5 and at human TGR5 (h-TGR5) was under 100 nM in each case.
